The source of these data is patent US10493070B2 (priority 2016, dated 2019).

A value given as a limit tells only on which side of the number the result lay.

The first test deals with recombinant NL4-3 virus (NLRluc, Renilla luciferase in nef, Gag P373S). Kind of test: HIV cell culture assay (Renilla luciferase reporter virus in MT-2 cells). Conditions: Renilla, NL43, read-out: 10% FBS EC50, 10% FBS, class symbols A/B/C. The class given is cell-based. On the procedure:
MT-2 cells and 293T cells were obtained from the NIH AIDS Research and Reference Reagent Program. MT-2 cells were propagated in RPMI 1640 media supplemented with 10% heat inactivated fetal bovine serum, […]. The 293T cells were propagated in DMEM media supplemented with 10% heat inactivated fetal bovine serum (FBS), 100 units/ml penicillin G and 100 μg/ml streptomycin. The proviral DNA clone of NL4-3 was obtained from the NIH AIDS Research and Reference Reagent Program. A recombinant NL4-3 virus, in which a section of the nef gene from NL4-3 was replaced with the Renilla luciferase gene, was used as a reference virus. In addition, residue Gag P373 was converted to P373S. Briefly, the recombinant virus was prepared by transfection of the altered proviral clone of NL4-3. Transfections were performed in 293T cells using LipofectAMINE PLUS from Invitrogen (Carlsbad, Calif.), according to manufacturer's instruction. The virus was titered in MT-2 cells using luciferase enzyme activity as a marker. Luciferase was quantitated using the Dual Luciferase kit from Promega (Madison, Wis.), with modifications to the manufacturer's protocol. The diluted Passive Lysis solution was pre-mixed with the re-suspended Luciferase Assay Reagent and the re-suspended Stop & Glo Substrate (2:1:1 ratio). Fifty (50) μL of the mixture was added to each aspirated well on assay plates and luciferase activity was measured immediately on a Wallac TriLux (Perkin-Elmer). Antiviral activities of inhibitors toward the recombinant virus were quantified by measuring luciferase activity in cells infected for 4-5 days with NLRluc recombinants in the presence serial dilutions of the inhibitor. Table 16 is the key for the data in Table 17.
(In a reporter assay the amount or activity of a reporter protein is the signal.)
Regarding `CC(C)C[C@H](NC(=O)OC(C)(C)C)C(=O)N1CCC(C(=O)N2CC=C3C(C)(C)C(c4ccc(C(=O)O)cc4)=CC[C@]3(C)C2)(c2ccccc2)CC1` [Example 93], the EC50 was < 500 nM. The same measure, in the same setting: the figure for `Cc1ccc2nc(-c3ccccc3C(=O)N3CC=C4C(C)(C)C(c5ccc(C(=O)O)cc5)=CC[C@]4(C)C3)[nH]c2c1C` [Example 98] is < 500 nM.

Regarding `CC1(C)C(c2ccc(C(=O)O)cc2)=CC[C@]2(C)CN(C(=O)C3(c4ccccc4F)CCCC3)CC=C12` [Example A1], the EC50 is > 3000 nM. On to `Cc1nn(-c2ccccc2)nc1C(=O)N1CC=C2C(C)(C)C(c3ccc(C(=O)O)cc3)=CC[C@]2(C)C1` [Example A40], for which the EC50 is > 3000 nM. On to `CC1(C)C(c2ccc(C(=O)O)cc2)=CC[C@]2(C)CN(C(=O)c3nc4ccccc4[nH]3)CC=C12` [Example A66], for which the EC50 was > 3000 nM. The same measure, in the same setting: for `CC1(C)C(c2ccc(C(=O)O)cc2)=CC[C@]2(C)CN(C(=O)[C@H]3C[C@@H]4C=C[C@H]3C4)CC=C12` [Example A86] the value was > 3000 nM; for `CC1(C)C(c2ccc(C(=O)O)cc2)=CC[C@]2(C)CN(C(=O)C3(c4ccc(F)cc4)CCCC3)CC=C12` [Example A111], > 3000 nM; for `CC(C)(C)OC(=O)N1CCCCC1CCC(=O)N1CCC(C(=O)N2CC=C3C(C)(C)C(c4ccc(C(=O)O)cc4)=CC[C@]3(C)C2)(c2ccccc2)CC1` (stereo partly shown) [Example A168], < 500 nM. Still for that read-out and setting: the figure for `CC(C)S(=O)(=O)N1CCC(C(=O)N2CC=C3C(C)(C)C(c4ccc(C(=O)O)cc4)=CC[C@]3(C)C2)(c2ccccc2)CC1` [Example A195] is < 500 nM; for `Cc1cc2nc(-c3ccccc3C(=O)N3CC=C4C(C)(C)C(c5ccc(C(=O)O)cc5)=CC[C@]4(C)C3)[nH]c2cc1Cl` [Example A254] it is < 500 nM; for `CC1(C)C(c2ccc(C(=O)O)cc2)=CC[C@]2(C)CN(C(=O)c3ccccc3-c3nc4cc(Cl)c(Cl)cc4[nH]3)CC=C12` [Example A265] it is < 500 nM. On the same count and under the same terms, the figure for `CC1(C)C(c2ccc(C(=O)O)cc2)=CC[C@]2(C)CN(C(=O)c3ccccc3-c3nc4c(F)cccc4[nH]3)CC=C12` [Example A266] is < 500 nM; for `CC1(C)C(c2ccc(C(=O)O)cc2)=CC[C@]2(C)CN(C(=O)c3ccccc3-c3nc4cc(F)c(F)cc4[nH]3)CC=C12` [Example A267] it is 500 to 3000 nM. On to `Cc1cc(Cl)cc2[nH]c(-c3ccccc3C(=O)N3CC=C4C(C)(C)C(c5ccc(C(=O)O)cc5)=CC[C@]4(C)C3)nc12` [Example A271], for which the EC50 is < 500 nM. The same measure, in the same setting: for `CC1(C)C(c2ccc(C(=O)O)cc2)=CC[C@]2(C)CN(C(=O)c3ccccc3-c3nc4c([N+](=O)[O-])cccc4[nH]3)CC=C12` [Example A272] the value was < 500 nM; for `Cn1c(-c2ccccc2C(=O)N2CC=C3C(C)(C)C(c4ccc(C(=O)O)cc4)=CC[C@]3(C)C2)nc2ccccc21` [Example A274], > 3000 nM.

The test is the same for the next values; noted with them: Renilla, NL43, read-out: 10% FBS EC50, 10% FBS, numeric values.
For `CC(C)C[C@H](NC(=O)OC(C)(C)C)C(=O)N1CCC(C(=O)N2CC=C3C(C)(C)[C@@H](c4ccc(C(=O)O)cc4)CC[C@]3(C)C2)(c2ccccc2)CC1` [Example 89], the EC50 is 67 nM. In the case of `CC(C)C[C@@H](NC(=O)OC(C)(C)C)C(=O)N1CCC(C(=O)N2CC=C3C(C)(C)C(c4ccc(C(=O)O)cc4)=CC[C@]3(C)C2)(c2ccccc2)CC1` [Example 92, 4-((S)-2-(1-((tert-butoxycarbonyl)-D-leucyl)-4-phenylpiperidine-4-carbonyl)-5,5,8a-trimethyl-1,2,3,5,8,8a-hexahydroisoquinolin-6-yl)benzoic acid], the EC50 was 8 nM.

On to `CC1(C)C(c2ccc(C(=O)O)cc2)=CC[C@]2(C)CN(C(=O)C3(c4ccccc4)CCN(C(=O)CN4CCS(=O)(=O)CC4)CC3)CC=C12` [Example 94], for which the EC50 stood at 1370 nM.

On to `CC1(C)C(c2ccc(C(=O)O)cc2)=CC[C@]2(C)CN(C(=O)C3(c4ccccc4)CCN(C(=O)CCN4CCS(=O)(=O)CC4)CC3)CC=C12` [Example 95], for which the EC50 was 2700 nM. For `CC1(C)C(c2ccc(C(=O)O)cc2)=CC[C@]2(C)CN(C(=O)C3(c4ccccc4)CCN(CCN4CCS(=O)(=O)CC4)CC3)CC=C12` [Example 96, (S)-4-(2-(1-(2-(1,1-dioxidothiomorpholino)ethyl)-4-phenylpiperidine-4-carbonyl)-5,5,8a-trimethyl-1,2,3,5,8,8a-hexahydroisoquinolin-6-yl)benzoic acid], the EC50 came out at 1350 nM. On the same count and under the same terms, the figure for `Cc1cc2nc(-c3ccccc3C(=O)N3CC=C4C(C)(C)C(c5ccc(C(=O)O)cc5)=CC[C@]4(C)C3)[nH]c2cc1C` [Example 97, (S)-4-(2-(2-(5,6-dimethyl-1H-benzo[d]imidazol-2-yl)benzoyl)-5,5,8a-trimethyl-1,2,3,5,8,8a-hexahydroisoquinolin-6-yl)benzoic acid] is 51 nM; for `CC1(C)C(c2ccc(C(=O)O)cc2)=CC[C@]2(C)CN(C(=O)c3ccccc3-c3nc4cc(Br)c(Br)cc4[nH]3)CC=C12` [Example 99, (S)-4-(2-(2-(5,6-dibromo-1H-benzo[d]imidazol-2-yl)benzoyl)-5,5,8a-trimethyl-1,2,3,5,8,8a-hexahydroisoquinolin-6-yl)benzoic acid] it is 16 nM; for `CN1Cc2c(ccc3nc(-c4ccccc4C(=O)N4CC=C5C(C)(C)C(c6ccc(C(=O)O)cc6)=CC[C@]5(C)C4)[nH]c23)C(c2ccccc2)C1` (stereo partly shown) [Example 100] it is 2810 nM. Regarding `CC1(C)C(c2ccc(C(=O)O)cc2)=CC[C@@]2(C)CN(C(=O)c3cccc4c3C(=O)c3ccccc3-4)CC=C12` [Example A30], the EC50 turned out to be 1080 nM. Still for that read-out and setting: for `CC(C)[C@H]1CC[C@H](C)C[C@@H]1OC(=O)c1ccccc1C(=O)N1CC=C2C(C)(C)C(c3ccc(C(=O)O)cc3)=CC[C@]2(C)C1` [Example A36] the value was 380 nM. Consider `CCOc1cccc2cc(C(=O)N3CC=C4C(C)(C)C(c5ccc(C(=O)O)cc5)=CC[C@]4(C)C3)oc12` [Example A46], for which the EC50 came to 1320 nM. In the case of `CC1(C)C(c2ccc(C(=O)O)cc2)=CC[C@]2(C)CN(C(=O)c3ccccc3-n3cccn3)CC=C12` [Example A58], the EC50 is 1850 nM.

For the compound `CC1(C)C(c2ccc(C(=O)O)cc2)=CC[C@]2(C)CN(C(=O)c3ccccc3-c3ccc(C#N)cc3)CC=C12` [Example A71], the EC50 amounted to 1300 nM. As for `Cn1nc(-c2ccccc2)c(C(=O)N2CC=C3C(C)(C)C(c4ccc(C(=O)O)cc4)=CC[C@]3(C)C2)c1Cl` [Example A79], the EC50 is 870 nM. Still for that read-out and setting: for `CC1(C)C(c2ccc(C(=O)O)cc2)=CC[C@]2(C)CN(C(=O)c3c(-c4ccccc4)nc4ccccn34)CC=C12` [Example A91] the value was 711 nM; for `CC1(C)C(c2ccc(C(=O)O)cc2)=CC[C@]2(C)CN(C(=O)c3[nH]c4ccccc4c3-c3ccccc3)CC=C12` [Example A112], 1100 nM; for `CC1(C)C(c2ccc(C(=O)O)cc2)=CC[C@]2(C)CN(C(=O)c3ccccc3-c3nc4ccccc4[nH]3)CC=C12` [Example A114], 52 nM. Regarding `C[C@@H](OC(C)(C)C)[C@H](NC(=O)OC(C)(C)C)C(=O)N1CCC(C(=O)N2CC=C3C(C)(C)C(c4ccc(C(=O)O)cc4)=CC[C@]3(C)C2)(c2ccccc2)CC1` [Example A185], the EC50 came out at 123 nM. The same measure, in the same setting: the figure for `CC1(C)C(c2ccc(C(=O)O)cc2)=CC[C@]2(C)CN(C(=O)C3(c4ccccc4)CCN(S(=O)(=O)CCCCl)CC3)CC=C12` [Example A197] is 147 nM. The same measure, in the same setting: for `CC(C)(C)OC(=O)N1CSC[C@@H]1C(=O)N1CCC(C(=O)N2CC=C3C(C)(C)C(c4ccc(C(=O)O)cc4)=CC[C@]3(C)C2)(c2ccccc2)CC1` [Example A204] the value was 309 nM. For the compound `CC(C)(C)OC(=O)N[C@H](C(=O)N1CCC(C(=O)N2CC=C3C(C)(C)C(c4ccc(C(=O)O)cc4)=CC[C@]3(C)C2)(c2ccccc2)CC1)C(C)(C)C` [Example A219], the EC50 is 150 nM. The same measure, in the same setting: the figure for `CC1(C)C(c2ccc(C(=O)O)cc2)=CC[C@]2(C)CN(C(=O)c3ccccc3-c3nc4cc(F)c(Cl)cc4[nH]3)CC=C12` [Example A260] is 298 nM; for `CC1(C)C(c2ccc(C(=O)O)cc2)=CC[C@]2(C)CN(C(=O)c3ccccc3-c3nc4c(Cl)cc(Cl)cc4[nH]3)CC=C12` [Example A268] it is 14 nM; for `CC1(C)C(c2ccc(C(=O)O)cc2)=CC[C@]2(C)CN(C(=O)c3ccccc3-c3nc4c(Cl)cccc4[nH]3)CC=C12` [Example A270] it is 14 nM. `CC1(C)C(c2ccc(C(=O)O)cc2)=CC[C@]2(C)CN(C(=O)c3ccccc3-c3nc4cc([N+](=O)[O-])ccc4[nH]3)CC=C12` [Example A273]: the EC50 is 63 nM. Turning to `CC1(C)C(c2ccc(C(=O)O)cc2)=CC[C@]2(C)CN(C(=O)c3ccccc3-c3nc4ccccc4n3CC34CCN(CC3)CC4)CC=C12` [Example A275], the EC50 is 1700 nM.

Staying with this test, now noted: read-out: 10% FBS EC50, 10% FBS, numeric values.
With `CN1Cc2c(ccc3nc(-c4ccccc4C(=O)N4CC=C5C(C)(C)C(c6ccc(C(=O)O)cc6)=CC[C@]5(C)C4)[nH]c23)C(c2ccccc2)C1` (stereo partly shown) [Example 101], the EC50 stood at 2980 nM.
